Structures are written as SMILES. The source made the active and inactive calls. How the calls were made is not given here.

The results in this text go back to PubChem BioAssay AID1259407 (Chemical Carcinogenesis Research Information System (CCRIS), 2018).

The series concerns CCRIS mutagenicity, Ames/micronucleus/aberration tests. Kind of series: CCRIS mutagenicity studies.
Where [1] appears, read: Test System: AMES SALMONELLA TYPHIMURIUM, Strain/Indicator: TA100, Metabolic Activation: NONE, Method: STANDARD PLATE.

With `CCCCCCCCCCCCCl`, the mutagenic call runs as follows: (Test System: AMES SALMONELLA TYPHIMURIUM, Strain/Indicator: TA97, Metabolic Activation: HAMSTER, LIVER, S-9, AROCLOR 1254 (10 OR 30%), Method: PREINCUBATION) “inactive; negative”; (Test System: AMES SALMONELLA TYPHIMURIUM, Strain/Indicator: TA97, Metabolic Activation: NONE, Method: PREINCUBATION) “inactive; negative”; (Test System: AMES SALMONELLA TYPHIMURIUM, Strain/Indicator: TA97, Metabolic Activation: RAT, LIVER, S-9, AROCLOR 1254 (10 OR 30%), Method: PREINCUBATION) “inactive; negative”; (Test System: AMES SALMONELLA TYPHIMURIUM, Strain/Indicator: TA98, Metabolic Activation: HAMSTER, LIVER, S-9, AROCLOR 1254 (10 OR 30%), Method: PREINCUBATION) “inactive; negative”; (Test System: AMES SALMONELLA TYPHIMURIUM, Strain/Indicator: TA98, Metabolic Activation: NONE, Method: PREINCUBATION) “inactive; negative”; (Test System: AMES SALMONELLA TYPHIMURIUM, Strain/Indicator: TA98, Metabolic Activation: RAT, LIVER, S-9, AROCLOR 1254 (10 OR 30%), Method: PREINCUBATION) “inactive; negative”. Further, the mutagenic call reads like this: (Test System: AMES SALMONELLA TYPHIMURIUM, Strain/Indicator: TA100, Metabolic Activation: HAMSTER, LIVER, S-9, AROCLOR 1254 (10 OR 30%), Method: PREINCUBATION) “inactive; negative”; (Test System: AMES SALMONELLA TYPHIMURIUM, Strain/Indicator: TA100, Metabolic Activation: NONE, Method: PREINCUBATION) “inactive; negative”; (Test System: AMES SALMONELLA TYPHIMURIUM, Strain/Indicator: TA100, Metabolic Activation: RAT, LIVER, S-9, AROCLOR 1254 (10 OR 30%), Method: PREINCUBATION) “inactive; negative”; (Test System: AMES SALMONELLA TYPHIMURIUM, Strain/Indicator: TA1535, Metabolic Activation: HAMSTER, LIVER, S-9, AROCLOR 1254 (10 OR 30%), Method: PREINCUBATION) “inactive; negative”; (Test System: AMES SALMONELLA TYPHIMURIUM, Strain/Indicator: TA1535, Metabolic Activation: NONE, Method: PREINCUBATION) “inactive; negative”; (Test System: AMES SALMONELLA TYPHIMURIUM, Strain/Indicator: TA1535, Metabolic Activation: RAT, LIVER, S-9, AROCLOR 1254 (10 OR 30%), Method: PREINCUBATION) “inactive; negative”. Further, the mutagenic call runs as follows: (Test System: AMES SALMONELLA TYPHIMURIUM, Strain/Indicator: TA1537, Metabolic Activation: HAMSTER, LIVER, S-9, AROCLOR 1254 (30%), Method: PREINCUBATION) “inactive; negative”; (Test System: AMES SALMONELLA TYPHIMURIUM, Strain/Indicator: TA1537, Metabolic Activation: NONE, Method: PREINCUBATION) “inactive; negative”; (Test System: AMES SALMONELLA TYPHIMURIUM, Strain/Indicator: TA1537, Metabolic Activation: RAT, LIVER, S-9, AROCLOR 1254 (30%), Method: PREINCUBATION) “inactive; negative”.
For the compound `CC(=O)n1ncc(Cl)c(Cl)c1=O`, the mutagenic call runs as follows: (Test System: AMES SALMONELLA TYPHIMURIUM, Strain/Indicator: TA98, Metabolic Activation: NONE, Method: STANDARD PLATE) “inactive; negative”; (Test System: AMES SALMONELLA TYPHIMURIUM, Strain/Indicator: TA98, Metabolic Activation: RAT, LIVER, S-9, AROCLOR 1254, Method: STANDARD PLATE) “inactive; negative”; under setting [1], “inactive; negative”; (Test System: AMES SALMONELLA TYPHIMURIUM, Strain/Indicator: TA100, Metabolic Activation: RAT, LIVER, S-9, AROCLOR 1254, Method: STANDARD PLATE) “inactive; negative”; (Test System: AMES SALMONELLA TYPHIMURIUM, Strain/Indicator: TA1535, Metabolic Activation: NONE, Method: STANDARD PLATE) “inactive; negative”; (Test System: AMES SALMONELLA TYPHIMURIUM, Strain/Indicator: TA1535, Metabolic Activation: RAT, LIVER, S-9, AROCLOR 1254, Method: STANDARD PLATE) “inactive; negative”. Also, the mutagenic call is “inactive; negative” (Test System: AMES SALMONELLA TYPHIMURIUM, Strain/Indicator: TA1537, Metabolic Activation: NONE, Method: STANDARD PLATE) and “inactive; negative” (Test System: AMES SALMONELLA TYPHIMURIUM, Strain/Indicator: TA1537, Metabolic Activation: RAT, LIVER, S-9, AROCLOR 1254, Method: STANDARD PLATE).
On to `c1ccc2c(OCC3CO3)nsc2c1` (configuration not stated), for which, under setting [1], the mutagenic call is “active; positive”.
As to `O[C@H]1[C@@H]2O[C@@H]2c2c(ccc3ccc4ccccc4c23)[C@@H]1O`, the mutagenic call (Test System: E. COLI, Strain/Indicator: CL101P, Metabolic Activation: NONE, Method: PREINCUBATION) was “active; positive”; the mutagenic call (Test System: E. COLI, Strain/Indicator: CL102P, Metabolic Activation: NONE, Method: PREINCUBATION) was “active; positive”; the mutagenic call (Test System: E. COLI, Strain/Indicator: CL103P, Metabolic Activation: NONE, Method: PREINCUBATION) was “active; positive”; the mutagenic call (Test System: E. COLI, Strain/Indicator: CL104P, Metabolic Activation: NONE, Method: PREINCUBATION) is “active; positive”; the mutagenic call (Test System: E. COLI, Strain/Indicator: CL105P, Metabolic Activation: NONE, Method: PREINCUBATION) was “active; positive”; the mutagenic call (Test System: E. COLI, Strain/Indicator: CL106P, Metabolic Activation: NONE, Method: PREINCUBATION) was “active; positive”.
Turning to `CC(F)F`, the mutagenic call by setting is: (Test System: AMES SALMONELLA TYPHIMURIUM, Strain/Indicator: TA98, Metabolic Activation: NONE, Method: GAS EXPOSURE) “inactive; negative”; (Test System: AMES SALMONELLA TYPHIMURIUM, Strain/Indicator: TA98, Metabolic Activation: RAT LIVER S-9, PHENOBARBITAL AND BETA-NAPHTHOFLAVONE, Method: GAS EXPOSURE) “inactive; negative”; (Test System: AMES SALMONELLA TYPHIMURIUM, Strain/Indicator: TA100, Metabolic Activation: NONE, Method: GAS EXPOSURE) “inactive; negative”; (Test System: AMES SALMONELLA TYPHIMURIUM, Strain/Indicator: TA100, Metabolic Activation: RAT LIVER S-9, PHENOBARBITAL AND BETA-NAPHTHOFLAVONE, Method: GAS EXPOSURE) “inactive; negative”; (Test System: AMES SALMONELLA TYPHIMURIUM, Strain/Indicator: TA1535, Metabolic Activation: NONE, Method: GAS EXPOSURE) “inactive; negative”; (Test System: AMES SALMONELLA TYPHIMURIUM, Strain/Indicator: TA1535, Metabolic Activation: RAT LIVER S-9, PHENOBARBITAL AND BETA-NAPHTHOFLAVONE, Method: GAS EXPOSURE) “inactive; negative”. The mutagenic call (Test System: AMES SALMONELLA TYPHIMURIUM, Strain/Indicator: TA1537, Metabolic Activation: NONE, Method: GAS EXPOSURE) was “inactive; negative”; the mutagenic call (Test System: AMES SALMONELLA TYPHIMURIUM, Strain/Indicator: TA1537, Metabolic Activation: RAT LIVER S-9, PHENOBARBITAL AND BETA-NAPHTHOFLAVONE, Method: GAS EXPOSURE) was “inactive; negative”; the mutagenic call (Test System: E.COLI, Strain/Indicator: WP2UVRA, Metabolic Activation: NONE, Method: GAS EXPOSURE) is “inactive; negative”; the mutagenic call (Test System: E.COLI, Strain/Indicator: WP2UVRA, Metabolic Activation: RAT LIVER S-9, PHENOBARBITAL AND BETA-NAPHTHOFLAVONE, Method: GAS EXPOSURE) was “inactive; negative”.
Consider `O=[N+]([O-])c1ccc2c(c1)CCc1cc3c(cc1-2)CCCC3`, for which the mutagenic call (Test System: AMES SALMONELLA TYPHIMURIUM, Strain/Indicator: TA98(1,8-DNP6), Metabolic Activation: NONE) is “active; positive”; the mutagenic call (Test System: AMES SALMONELLA TYPHIMURIUM, Strain/Indicator: TA98(1,8-DNP6), Metabolic Activation: RAT, LIVER, S-9, AROCLOR 1254) is “active; positive”; the mutagenic call (Test System: AMES SALMONELLA TYPHIMURIUM, Strain/Indicator: TA98(NR), Metabolic Activation: NONE) is “active; positive”; the mutagenic call (Test System: AMES SALMONELLA TYPHIMURIUM, Strain/Indicator: TA98(NR), Metabolic Activation: RAT, LIVER, S-9, AROCLOR 1254) was “active; positive”; the mutagenic call (Test System: AMES SALMONELLA TYPHIMURIUM, Strain/Indicator: TA98, Metabolic Activation: NONE) was “active; positive”; the mutagenic call (Test System: AMES SALMONELLA TYPHIMURIUM, Strain/Indicator: TA98, Metabolic Activation: RAT, LIVER, S-9, AROCLOR 1254) is “active; positive”. Besides, the mutagenic call was “active; positive” (Test System: AMES SALMONELLA TYPHIMURIUM, Strain/Indicator: TA100(NR), Metabolic Activation: NONE); “active; positive” (Test System: AMES SALMONELLA TYPHIMURIUM, Strain/Indicator: TA100(NR), Metabolic Activation: RAT, LIVER, S-9, AROCLOR 1254); “active; positive” (Test System: AMES SALMONELLA TYPHIMURIUM, Strain/Indicator: TA100, Metabolic Activation: NONE); “active; positive” (Test System: AMES SALMONELLA TYPHIMURIUM, Strain/Indicator: TA100, Metabolic Activation: RAT, LIVER, S-9, AROCLOR 1254); “active; positive” (Test System: AMES SALMONELLA TYPHIMURIUM, Strain/Indicator: TA104, Metabolic Activation: NONE); “active; positive” (Test System: AMES SALMONELLA TYPHIMURIUM, Strain/Indicator: TA104, Metabolic Activation: RAT, LIVER, S-9, AROCLOR 1254).
